Data: the OligoGym collection
Oligonucleotides are written 5' to 3', each unit as a sugar letter and its base; * is a phosphorothioate linkage, no mark a phosphodiester; rarer units and linkages stand in square brackets, end groups in braces. Plain capitals give the bases only. Oligonucleotides are given in HELM: sugar(base)linkage, 5' to 3'; d 2'-deoxyribose, r ribose, m 2'-O-methylribose, p phosphate. ss, as = sense and antisense strand; d = 2'-deoxy (DNA); r = 2'-OH (RNA)

molecular target: SOST; assay: reporter assay of Huesken 2005; details: siRNA
Further: test concentration or dose not given here.

Question: Which normalised inhibition (eCFP-eYFP dual reporter) does the source give for “RNA1{r(G)p.r(U)p.r(G)p.r(U)p.r(C)p.r(C)p.r(C)p.r(G)p.r(G)p.r(U)p.r(G)p.r(G)p.r(U)p.r(G)p.r(A)p.r(G)p.r(G)p.r(C)p.r(G)p.d(T)p.d(T)}|RNA2{r(C)p.r(G)p.r(C)p.r(C)p.r(U)p.r(C)p.r(A)p.r(C)p.r(C)p.r(A)p.r(C)p.r(C)p.r(G)p.r(G)p.r(G)p.r(A)p.r(C)p.r(A)p.r(C)p.d(A)p.d(G)}$$$RNA1{StrandType:ss}|RNA2{StrandType:as}$” here?
Answer: 62.9%

Question: With “RNA1{r(G)p.r(C)p.r(G)p.r(C)p.r(G)p.r(C)p.r(A)p.r(A)p.r(G)p.r(G)p.r(U)p.r(G)p.r(C)p.r(G)p.r(C)p.r(C)p.r(U)p.r(G)p.r(G)p.d(T)p.d(T)}|RNA2{r(C)p.r(C)p.r(A)p.r(G)p.r(G)p.r(C)p.r(G)p.r(C)p.r(A)p.r(C)p.r(C)p.r(U)p.r(U)p.r(G)p.r(C)p.r(G)p.r(C)p.r(G)p.r(C)p.d(G)p.d(C)}$$$RNA1{StrandType:ss}|RNA2{StrandType:as}$” as the substance, how does the normalised inhibition (eCFP-eYFP dual reporter) read?
Answer: 41.3%

Question: With “RNA1{r(C)p.r(A)p.r(G)p.r(C)p.r(G)p.r(C)p.r(C)p.r(A)p.r(A)p.r(G)p.r(C)p.r(C)p.r(G)p.r(G)p.r(U)p.r(C)p.r(A)p.r(C)p.r(C)p.d(T)p.d(T)}|RNA2{r(G)p.r(G)p.r(U)p.r(G)p.r(A)p.r(C)p.r(C)p.r(G)p.r(G)p.r(C)p.r(U)p.r(U)p.r(G)p.r(G)p.r(C)p.r(G)p.r(C)p.r(U)p.r(G)p.d(C)p.d(G)}$$$RNA1{StrandType:ss}|RNA2{StrandType:as}$” as the substance, how does the normalised inhibition (eCFP-eYFP dual reporter) read?
Answer: 50.5%

Question: For “RNA1{r(C)p.r(C)p.r(A)p.r(C)p.r(A)p.r(A)p.r(C)p.r(C)p.r(A)p.r(G)p.r(U)p.r(C)p.r(G)p.r(G)p.r(A)p.r(G)p.r(C)p.r(U)p.r(C)p.d(T)p.d(T)}|RNA2{r(G)p.r(A)p.r(G)p.r(C)p.r(U)p.r(C)p.r(C)p.r(G)p.r(A)p.r(C)p.r(U)p.r(G)p.r(G)p.r(U)p.r(U)p.r(G)p.r(U)p.r(G)p.r(G)p.d(A)p.d(A)}$$$RNA1{StrandType:ss}|RNA2{StrandType:as}$”, which normalised inhibition (eCFP-eYFP dual reporter) is on record?
Answer: 80.8%

Question: How did the normalised inhibition (eCFP-eYFP dual reporter) turn out when “RNA1{r(C)p.r(U)p.r(U)p.r(C)p.r(A)p.r(C)p.r(C)p.r(C)p.r(G)p.r(C)p.r(U)p.r(A)p.r(C)p.r(G)p.r(U)p.r(G)p.r(A)p.r(C)p.r(C)p.d(T)p.d(T)}|RNA2{r(G)p.r(G)p.r(U)p.r(C)p.r(A)p.r(C)p.r(G)p.r(U)p.r(A)p.r(G)p.r(C)p.r(G)p.r(G)p.r(G)p.r(U)p.r(G)p.r(A)p.r(A)p.r(G)p.d(T)p.d(G)}$$$RNA1{StrandType:ss}|RNA2{StrandType:as}$” was run?
Answer: 59.4%

Question: With “RNA1{r(U)p.r(G)p.r(C)p.r(A)p.r(A)p.r(G)p.r(C)p.r(G)p.r(C)p.r(C)p.r(U)p.r(C)p.r(A)p.r(C)p.r(C)p.r(C)p.r(G)p.r(C)p.r(U)p.d(T)p.d(T)}|RNA2{r(A)p.r(G)p.r(C)p.r(G)p.r(G)p.r(G)p.r(U)p.r(G)p.r(A)p.r(G)p.r(G)p.r(C)p.r(G)p.r(C)p.r(U)p.r(U)p.r(G)p.r(C)p.r(A)p.d(C)p.d(T)}$$$RNA1{StrandType:ss}|RNA2{StrandType:as}$” as the substance, how does the normalised inhibition (eCFP-eYFP dual reporter) read?
Answer: 66.2%

Question: With “RNA1{r(C)p.r(C)p.r(G)p.r(U)p.r(G)p.r(U)p.r(A)p.r(G)p.r(U)p.r(G)p.r(G)p.r(A)p.r(G)p.r(G)p.r(G)p.r(C)p.r(C)p.r(A)p.r(G)p.d(T)p.d(T)}|RNA2{r(C)p.r(U)p.r(G)p.r(G)p.r(C)p.r(C)p.r(C)p.r(U)p.r(C)p.r(C)p.r(A)p.r(C)p.r(U)p.r(A)p.r(C)p.r(A)p.r(C)p.r(G)p.r(G)p.d(A)p.d(A)}$$$RNA1{StrandType:ss}|RNA2{StrandType:as}$” as the substance, how does the normalised inhibition (eCFP-eYFP dual reporter) read?
Answer: 55.2%

Question: Which normalised inhibition (eCFP-eYFP dual reporter) does the source give for “RNA1{r(C)p.r(C)p.r(G)p.r(C)p.r(A)p.r(G)p.r(C)p.r(G)p.r(C)p.r(C)p.r(A)p.r(A)p.r(G)p.r(C)p.r(C)p.r(G)p.r(G)p.r(U)p.r(C)p.d(T)p.d(T)}|RNA2{r(G)p.r(A)p.r(C)p.r(C)p.r(G)p.r(G)p.r(C)p.r(U)p.r(U)p.r(G)p.r(G)p.r(C)p.r(G)p.r(C)p.r(U)p.r(G)p.r(C)p.r(G)p.r(G)p.d(C)p.d(A)}$$$RNA1{StrandType:ss}|RNA2{StrandType:as}$” here?
Answer: 51.3%

Question: With “RNA1{r(A)p.r(G)p.r(C)p.r(U)p.r(C)p.r(A)p.r(A)p.r(G)p.r(G)p.r(A)p.r(C)p.r(U)p.r(U)p.r(C)p.r(G)p.r(G)p.r(G)p.r(A)p.r(C)p.d(T)p.d(T)}|RNA2{r(G)p.r(U)p.r(C)p.r(C)p.r(C)p.r(G)p.r(A)p.r(A)p.r(G)p.r(U)p.r(C)p.r(C)p.r(U)p.r(U)p.r(G)p.r(A)p.r(G)p.r(C)p.r(U)p.d(C)p.d(C)}$$$RNA1{StrandType:ss}|RNA2{StrandType:as}$” as the substance, how does the normalised inhibition (eCFP-eYFP dual reporter) read?
Answer: 64.7%

Question: With “RNA1{r(G)p.r(C)p.r(U)p.r(A)p.r(C)p.r(C)p.r(G)p.r(C)p.r(G)p.r(C)p.r(G)p.r(C)p.r(A)p.r(G)p.r(C)p.r(G)p.r(C)p.r(G)p.r(U)p.d(T)p.d(T)}|RNA2{r(A)p.r(C)p.r(G)p.r(C)p.r(G)p.r(C)p.r(U)p.r(G)p.r(C)p.r(G)p.r(C)p.r(G)p.r(C)p.r(G)p.r(G)p.r(U)p.r(A)p.r(G)p.r(C)p.d(G)p.d(G)}$$$RNA1{StrandType:ss}|RNA2{StrandType:as}$” as the substance, how does the normalised inhibition (eCFP-eYFP dual reporter) read?
Answer: 51.8%

Question: How did the normalised inhibition (eCFP-eYFP dual reporter) turn out when “RNA1{r(U)p.r(C)p.r(G)p.r(G)p.r(A)p.r(G)p.r(C)p.r(U)p.r(C)p.r(A)p.r(A)p.r(G)p.r(G)p.r(A)p.r(C)p.r(U)p.r(U)p.r(C)p.r(G)p.d(T)p.d(T)}|RNA2{r(C)p.r(G)p.r(A)p.r(A)p.r(G)p.r(U)p.r(C)p.r(C)p.r(U)p.r(U)p.r(G)p.r(A)p.r(G)p.r(C)p.r(U)p.r(C)p.r(C)p.r(G)p.r(A)p.d(C)p.d(T)}$$$RNA1{StrandType:ss}|RNA2{StrandType:as}$” was run?
Answer: 61.8%

Question: For “RNA1{r(C)p.r(C)p.r(G)p.r(C)p.r(G)p.r(A)p.r(G)p.r(C)p.r(U)p.r(G)p.r(C)p.r(A)p.r(C)p.r(U)p.r(U)p.r(C)p.r(A)p.r(C)p.r(C)p.d(T)p.d(T)}|RNA2{r(G)p.r(G)p.r(U)p.r(G)p.r(A)p.r(A)p.r(G)p.r(U)p.r(G)p.r(C)p.r(A)p.r(G)p.r(C)p.r(U)p.r(C)p.r(G)p.r(C)p.r(G)p.r(G)p.d(C)p.d(A)}$$$RNA1{StrandType:ss}|RNA2{StrandType:as}$”, which normalised inhibition (eCFP-eYFP dual reporter) is on record?
Answer: 66.8%

Question: “RNA1{r(C)p.r(C)p.r(U)p.r(C)p.r(C)p.r(A)p.r(C)p.r(C)p.r(G)p.r(G)p.r(A)p.r(G)p.r(C)p.r(U)p.r(G)p.r(G)p.r(A)p.r(G)p.r(A)p.d(T)p.d(T)}|RNA2{r(U)p.r(C)p.r(U)p.r(C)p.r(C)p.r(A)p.r(G)p.r(C)p.r(U)p.r(C)p.r(C)p.r(G)p.r(G)p.r(U)p.r(G)p.r(G)p.r(A)p.r(G)p.r(G)p.d(C)p.d(T)}$$$RNA1{StrandType:ss}|RNA2{StrandType:as}$” was tested. Which normalised inhibition (eCFP-eYFP dual reporter) did it give?
Answer: 68.8%

Question: “RNA1{r(G)p.r(U)p.r(G)p.r(G)p.r(A)p.r(G)p.r(G)p.r(G)p.r(C)p.r(C)p.r(A)p.r(G)p.r(G)p.r(G)p.r(G)p.r(U)p.r(G)p.r(G)p.r(C)p.d(T)p.d(T)}|RNA2{r(G)p.r(C)p.r(C)p.r(A)p.r(C)p.r(C)p.r(C)p.r(C)p.r(U)p.r(G)p.r(G)p.r(C)p.r(C)p.r(C)p.r(U)p.r(C)p.r(C)p.r(A)p.r(C)p.d(T)p.d(A)}$$$RNA1{StrandType:ss}|RNA2{StrandType:as}$” was tested. Which normalised inhibition (eCFP-eYFP dual reporter) did it give?
Answer: 52.8%

Question: “RNA1{r(C)p.r(C)p.r(G)p.r(A)p.r(U)p.r(G)p.r(G)p.r(G)p.r(C)p.r(C)p.r(G)p.r(U)p.r(G)p.r(C)p.r(C)p.r(G)p.r(C)p.r(A)p.r(G)p.d(T)p.d(T)}|RNA2{r(C)p.r(U)p.r(G)p.r(C)p.r(G)p.r(G)p.r(C)p.r(A)p.r(C)p.r(G)p.r(G)p.r(C)p.r(C)p.r(C)p.r(A)p.r(U)p.r(C)p.r(G)p.r(G)p.d(T)p.d(C)}$$$RNA1{StrandType:ss}|RNA2{StrandType:as}$” was tested. Which normalised inhibition (eCFP-eYFP dual reporter) did it give?
Answer: 54.3%

Question: With “RNA1{r(C)p.r(G)p.r(G)p.r(C)p.r(G)p.r(C)p.r(G)p.r(C)p.r(C)p.r(U)p.r(G)p.r(C)p.r(U)p.r(G)p.r(C)p.r(C)p.r(C)p.r(A)p.r(A)p.d(T)p.d(T)}|RNA2{r(U)p.r(U)p.r(G)p.r(G)p.r(G)p.r(C)p.r(A)p.r(G)p.r(C)p.r(A)p.r(G)p.r(G)p.r(C)p.r(G)p.r(C)p.r(G)p.r(C)p.r(C)p.r(G)p.d(G)p.d(G)}$$$RNA1{StrandType:ss}|RNA2{StrandType:as}$” as the substance, how does the normalised inhibition (eCFP-eYFP dual reporter) read?
Answer: 84.6%

Question: How did the normalised inhibition (eCFP-eYFP dual reporter) turn out when “RNA1{r(A)p.r(A)p.r(G)p.r(A)p.r(C)p.r(G)p.r(U)p.r(G)p.r(U)p.r(C)p.r(C)p.r(G)p.r(A)p.r(G)p.r(U)p.r(A)p.r(C)p.r(A)p.r(G)p.d(T)p.d(T)}|RNA2{r(C)p.r(U)p.r(G)p.r(U)p.r(A)p.r(C)p.r(U)p.r(C)p.r(G)p.r(G)p.r(A)p.r(C)p.r(A)p.r(C)p.r(G)p.r(U)p.r(C)p.r(U)p.r(U)p.d(T)p.d(G)}$$$RNA1{StrandType:ss}|RNA2{StrandType:as}$” was run?
Answer: 87.1%

Question: Which normalised inhibition (eCFP-eYFP dual reporter) does the source give for “RNA1{r(G)p.r(G)p.r(G)p.r(G)p.r(U)p.r(G)p.r(G)p.r(C)p.r(A)p.r(G)p.r(G)p.r(C)p.r(G)p.r(U)p.r(U)p.r(C)p.r(A)p.r(A)p.r(G)p.d(T)p.d(T)}|RNA2{r(C)p.r(U)p.r(U)p.r(G)p.r(A)p.r(A)p.r(C)p.r(G)p.r(C)p.r(C)p.r(U)p.r(G)p.r(C)p.r(C)p.r(A)p.r(C)p.r(C)p.r(C)p.r(C)p.d(T)p.d(G)}$$$RNA1{StrandType:ss}|RNA2{StrandType:as}$” here?
Answer: 48.7%

molecular target: UBE2V1; assay: reporter assay of Huesken 2005; details: siRNA

Question: How did the normalised inhibition (eCFP-eYFP dual reporter) turn out when “sense rGrUrArGrGrArGrArUrGrGrCrArCrArGrUrUrAdTdT / antisense rUrArArCrUrGrUrGrCrCrArUrCrUrCrCrUrArCdTdC” was run?
Answer: 88.8%

Question: With “sense rCrCrUrUrUrGrUrArArGrArUrUrUrGrUrArArCdTdT / antisense rGrUrUrArCrArArArUrCrUrUrArCrArArArGrGdGdG” as the substance, how does the normalised inhibition (eCFP-eYFP dual reporter) read?
Answer: 63.8%

Question: For “sense rGrCrCrUrArArUrGrArUrGrUrCrUrArArArGrAdTdT / antisense rUrCrUrUrUrArGrArCrArUrCrArUrUrArGrGrCdGdC”, which normalised inhibition (eCFP-eYFP dual reporter) is on record?
Answer: 94.5%

Question: With “sense rUrCrArUrArUrArGrCrArUrCrArArArGrUrUrGdTdT / antisense rCrArArCrUrUrUrGrArUrGrCrUrArUrArUrGrAdAdT” as the substance, how does the normalised inhibition (eCFP-eYFP dual reporter) read?
Answer: 49%

Question: “sense rUrGrGrGrCrCrUrCrCrArArGrArArCrArArUrUdTdT / antisense rArArUrUrGrUrUrCrUrUrGrGrArGrGrCrCrCrAdAdT” was tested. Which normalised inhibition (eCFP-eYFP dual reporter) did it give?
Answer: 57.1%

Question: How did the normalised inhibition (eCFP-eYFP dual reporter) turn out when “sense rCrCrUrArArUrGrArUrGrUrCrUrArArArGrArAdTdT / antisense rUrUrCrUrUrUrArGrArCrArUrCrArUrUrArGrGdCdG” was run?
Answer: 95.1%
